Data as given in patent US7972849B2, “Primate pluripotent stem cells produced by somatic cell nuclear transfer” (Oregon Health & Science University, priority 2007, dated 2011).
Where a SMILES comes first, the peptide text is derived from it. The star is where a group is joined. Cbz = O=C(OCc1ccccc1)*

Key:
Assay type in all cases: cell-based, rhesus monkey
monkey SCNT embryos [1] = assay: Blastocyst development of monkey SCNT embryos produced by electrofusion
Description: Alternatively, donor cell nuclear transfer was accomplished by electrofusion. Electrofusion procedures were similar to the conventional protocols described previously (Mitalipov, Yeoman et al. 2002; Mitalipov, Kuo et al. 2003) with the exception that calcium acetates were removed from the fusion buffer. A disaggregated donor cell was aspirated into a micropipette and transferred into the perivitelline space of the cytoplast. Cell fusion was induced by two 50 μsec DC pulses of 2.7 kV/cm (Electro Square Porator T-820, BTX, Inc., San Diego, Calif.) in 0.25 M D-sorbitol buffer containing 0.5 mM Hepes and 1 mg/ml fatty acid-free BSA. Successful fusion was confirmed visually 20-30 min after electroporation by the disappearance of the donor cell in the perivitelline space.
Reconstructed embryos were activated 2 hours after fusion by exposure by exposure to […] ionomycin (CalBiochem, San Diego, Calif.) for 5 min in TALP/HEPES medium supplemented with 1 mg/ml BSA and then transferred for 5 min in TALP/HEPES medium supplemented with 30 mg/ml BSA and 2 mM 6-dimethylaminopurine followed by a 5 h incubation in HECM-9 medium containing 2 mM 6-dimethylaminopurine at 37° C. in 5% CO2, 5% O2 and 90% N2. Activated SCNT embryos were placed in HECM-9 medium and cultured as described above.

monkey SCNT embryos [2] = assay: Nuclear remodeling (lamin A/C immunostaining, chromatin condensation) in reconstructed SCNT embryos; settings: for occurrence of remodeling events in the donor nucleus: when used in the SCNT protocols disclosed
Method: Monkey oocytes and SCNT-derived totipotent cells were fixed in 4% paraformaldehyde for 20 min. After permeabilization with 0.2% Triton X-100 and 0.1% Tween-20, non-specific reactions were blocked with 10% normal goat serum (Jackson ImmunoResearch Laboratories, Inc., West Grove, Pa.). SCNT-derived totipotent cells were then incubated for 40 min in mouse monoclonal antibody against Oct-4 (POU5F1) or lamin A/C (1:200; Santa Cruz Biotechnology, Inc., Santa Cruz, Calif.). After extensive washing, SCNT-derived totipotent cells were exposed to affinity-purified goat anti-mouse, secondary antibody conjugated with indocarbocyanine (Cy3, 1:200; Jackson ImmunoResearch). SCNT-derived totipotent cells were then co-stained with 2 μg/ml of 4′, 6-diamidino-2-phenylindole (DAPI) for 10 min, whole-mounted onto slides and examined under epifluorescence microscopy.
Mature MII oocytes were exposed to 5 μM MG-132 immediately after retrieval and maintained in this inhibitor throughout enucleation and somatic donor cell fusion procedures.
Monkey oocytes are particularly vulnerable to premature activation and MPF degradation during in vitro manipulations, a likely characteristic of primates but with potential relevance to SCNT success in other mammals.

monkey oocytes [3] = assay: Inhibition of 1st polar body extrusion in monkey oocytes during the MI-MII transition; settings: for # Matured after exposure / # Matured during exposure: exposure time 4 hours, MI oocytes, N=5
monkey oocytes [4] = assay: In vitro development following fertilization by ICSI of oocytes exposed to MG-132; settings: 4 hours, MI oocytes, after ICSI
Method: Fertilization by ICSI and culture conditions for TSCs was performed as described previously (Wolf, Thormahlen et al. 2004). After ICSI, injected oocytes were placed in 4-well dishes (Nalge Nunc International Co., Naperville, Ill.) containing protein-free HECM-9 medium and cultured at 37° C. in 6% CO2, 5% O2 and 89% N2. Cultures were maintained under paraffin oil. SCNT-derived TSCs at the 8-cell stage were transferred to fresh plates of HECM-9 medium supplemented with 5% fetal bovine serum (FBS; HyClone, Logan, Utah) and cultured to the blastocyst stage with the medium changed every other day.
Failure to induce nuclear remodeling could reflect either inherently low MPF levels in MII oocytes recovered from ovarian stimulation protocols or loss of MPF resulting from premature oocyte activation during manipulation. In order to evaluate the first possibility, nuclear donor cells were fused with intact (non-enucleated) MII oocytes (n=13). […] To test the hypothesis that failed nuclear remodeling reflects premature activation caused by the SCNT procedures and decline in MPF activity mediated by the proteasome system, proteasome catalytic activity was inhibited with MG-132 (Josefsberg et al., Biol Reprod 62(5): 1270-7, 2000; Zhou et al., Science 302(5648): 117 2003).

## Cn1c(=O)c2c(ncn2C)n(C)c1=O [caffeine]
Monkey SCNT embryos [1]; 2.5 mM caffeine for 2 hours immediately after electrofusion
  time at which SCNT embryos reached the blastocyst stage: ≤ 8 days
Monkey SCNT embryos [1]; SCNT plus caffeine, 2.5 mM for 2 hours after electrofusion
  # Blastocysts forming by day 12: 0
Monkey SCNT embryos [1]; SCNT plus caffeine, 2.5 mM for 2 hours after electrofusion, count
  # Blastocysts forming by day 8: 4
Monkey SCNT embryos [1]; SCNT plus caffeine, 2.5 mM for 2 hours after electrofusion, percentage
  Blastocysts forming by day 8 (%): 31%
Monkey SCNT embryos [1]; SCNT plus caffeine, 2.5 mM for 2 hours immediately after electrofusion, N=19
  # cleaved: 13
Monkey SCNT embryos [2]
  occurrence of remodeling events in the donor nucleus: increased the occurrence of remodeling events in the donor nucleus

## CC(C)C[C@@H](C=O)NC(=O)[C@H](CC(C)C)NC(=O)[C@H](CC(C)C)NC(=O)OCc1ccccc1 [MG-132] (Cbz-Leu-Leu-Leu-aldehyde)
Monkey oocytes [3]; MG-132 0.5 μM
  # Matured after exposure: 1
  # Matured during exposure: 3
Monkey oocytes [3]; MG-132 2 μM
  # Matured after exposure: 3
  # Matured during exposure: 2
Monkey oocytes [3]; MG-132 5 μM
  # Matured after exposure: 4
  # Matured during exposure: 0
Monkey oocytes [3]; MG-132 at 5 μM, pilot study
  inhibition of first polar body extrusion during the MI to MII transition: efficient in inhibiting first polar body extrusion
Monkey oocytes [4]; MG-132 0.5 μM
  # 8-cell: 3
  # Blastocyst: 3
  # Morula: 3
Monkey oocytes [4]; MG-132 2 μM
  # 8-cell: 2
  # Blastocyst: 0
  # Morula: 0
Monkey oocytes [4]; MG-132 5 μM
  # 8-cell: 1
  # Blastocyst: 0
  # Morula: 0
Monkey SCNT embryos [2]; 5 μM MG-132 from retrieval throughout enucleation and fusion, by 4 hours
  nuclear remodeling of reconstructed embryos, by 4 hours after fusion: clear evidence of nuclear remodeling
Monkey SCNT embryos [2]; 5 μM MG-132 from retrieval throughout enucleation and fusion, sampled 1 hour after fusion
  nuclear remodeling of reconstructed embryos, 1 hour after fusion: slight chromatin condensation and moderate lamin A/C staining
Monkey SCNT embryos [2]; MG-132 exposure at the higher concentration (5 μM)
  MPF activity in monkey cytoplasts: preserved MPF activity
Monkey SCNT embryos [2]
  occurrence of remodeling events in the donor nucleus: increased the occurrence of remodeling events in the donor nucleus
